From patent US20250120970A1, “PHARMACEUTICAL COMPOSITION INCLUDING PHTHALAZINONE DERIVATIVE FOR CO-ADMINISTRATION WITH ANTICANCER DRUG” (priority 2022, published 2025)
Structures can show the parent of a compound that is named as a salt.

How the values were obtained:
[1] = test system: AGS; experiment: MTT assay, irinotecan with or without hydrochloride compound of Formula 1; assay type: cell-based; details: Homo sapiens, 120 h, 5 days, irinotecan alone or with 1 μM hydrochloride compound of Formula 1
[2] = test system: SNU-668; experiment: as above; assay type: cell-based; details: Homo sapiens, SNU668, 120 h, 5 days, irinotecan alone or with 1 μM hydrochloride compound of Formula 1
[3] = test system: SNU-638; experiment: as above; assay type: cell-based; details: Homo sapiens, 120 h, 5 days, irinotecan alone or with 1 μM hydrochloride compound of Formula 1
[4] = test system: SNU-484; experiment: as above; assay type: cell-based; details: Homo sapiens, 120 h, 5 days, irinotecan alone or with 1 μM hydrochloride compound of Formula 1
[5] = test system: SNU-216; experiment: as above; assay type: cell-based; details: Homo sapiens, 120 h, 5 days, irinotecan alone or with 1 μM hydrochloride compound of Formula 1
[6] = test system: five human-derived gastric cancer cell lines (AGS, SNU-668, SNU-216, SNU-484, and SNU-638); experiment: MTT assay, irinotecan experiment, summary over the five cell lines; details: 5 days, irinotecan with or without 1 μM hydrochloride compound of Formula 1
[7] = test system: SNU-484; experiment: MTT assay, oxaliplatin with or without hydrochloride compound of Formula 1; assay type: cell-based, human; details: 5 days, oxaliplatin alone or with 1 μM hydrochloride compound of Formula 1
Source text: (§1) Oxaliplatin (M.W. 397.29) was obtained from Sigma Aldrich.

[8] = test system: SNU-668; experiment: as above; assay type: cell-based, human; details: 5 days, oxaliplatin alone or with 1 μM hydrochloride compound of Formula 1
Source text: as §1

[9] = test system: AGS; experiment: as above; assay type: cell-based, human; details: 5 days, oxaliplatin alone or with 1 μM hydrochloride compound of Formula 1
Source text: as §1

[10] = test system: SNU-638; experiment: as above; assay type: cell-based, human; details: 5 days, oxaliplatin alone or with 1 μM hydrochloride compound of Formula 1
Source text: as §1

[11] = test system: five human-derived gastric cancer cell lines (AGS, SNU-668, SNU-216, SNU-484, and SNU-638); experiment: MTT assay, oxaliplatin experiment, summary over the cell lines; assay type: cell-based; details: 5 days, oxaliplatin with or without 1 μM hydrochloride compound of Formula 1
Source text: as §1

[12] = test system: MKN45 human gastric cancer xenograft; experiment: subcutaneous MKN45 human gastric cancer xenograft model, tumor volume; details: for Tumor volume (Mean ± SEM): Formula 1 HCl 2 mg/kg p.o. QD, irinotecan 5 mg/kg i.v. QW

SMILES: CCc1c2c(nc3ccc(OC(=O)N4CCC(N5CCCCC5)CC4)cc13)-c1cc3c(c(=O)n1C2)COC(=O)[C@]3(O)CC [Comparative Example 1, Irinotecan hydrochloride]
- IC50 [1]: 367 nM
- IC50 [2]: 4300 nM
- IC50 [3]: 657 nM
- IC50 [4]: 789 nM
- IC50 [5]: 2010 nM
- cell death (cell viability, FIG. 1) [6]: exhibited an effect of cell death

SMILES: O=C1[O][Pt-2]2([NH2+]C3CCCC[C@H]3[NH2+]2)[O]C1=O (stereo partly drawn) [Comparative Example 2, Oxaliplatin]
- IC50 [7]: 10400 nM
- IC50 [8]: 11200 nM
- IC50 [9]: 2380 nM
- IC50 [10]: 30300 nM
- cell death (cell viability, FIG. 2) [11]: exhibited an effect of cell death

SMILES: O=C(c1cc(Cc2n[nH]c(=O)c3ccccc23)ccc1F)N1CC(CNC2CC2)C1 [Comparative Example 4, 4-[3-(3-[(cyclopropylamino)methyl]azetidine-1-carbonyl)-4-fluorobenzyl]phthalazine-1 (2H)-on]
- Tumor volume (Mean ± SEM) ([12]; 0 day (grouping date), MKN45 xenograft mice): 156.60 mm^3
- Tumor volume (Mean ± SEM) ([12]; 3rd day, MKN45 xenograft mice): 190.75 mm^3
- Tumor volume (Mean ± SEM) ([12]; 7th day, MKN45 xenograft mice): 272.69 mm^3
- Tumor volume (Mean ± SEM) ([12]; 10th day, MKN45 xenograft mice): 359.75 mm^3
- Tumor volume (Mean ± SEM) ([12]; 14th day, MKN45 xenograft mice): 461.91 mm^3
- Tumor volume (Mean ± SEM) ([12]; 17th day, MKN45 xenograft mice): 588.26 mm^3
- Tumor growth inhibition (TGI) ([12]; 21st day, Formula 1 HCl 2 mg/kg QD, irinotecan 5 mg/kg QW): 19.69%
- Tumor size on 21st day (Mean ± SEM) ([12]; 21st day, MKN45 xenograft mice, Formula 1 HCl 2 mg/kg QD, irinotecan 5 mg/kg QW): 727.36 ± 69.46 mm^3
- Tumor volume (Mean ± SEM) ([12]; 21st day, MKN45 xenograft mice): 727.36 mm^3
- T/C ([12]; 21st day, treatment vs vehicle control tumor volume): 80.31%
